Earlier results in patent publication US20120258914A1, “COACERVATION PROCESS” (Alkermes, Inc., priority 2007, published 2012).

Question: What does the source list for exendin-4?
Answer: secretion of insulin (in the presence of elevated blood glucose concentrations, but not during hypoglycemia): stimulate secretion of insulin; food intake and body weight (in vivo): affect food intake and body weight; gastric emptying (in vivo): slow gastric emptying; glucagon secretion (in vivo): suppress glucagon secretion
